# Laboratory results as given in patent publication US20040198756A1, “Medicaments” (priority 2001, published 2004).
# Counter-ions that a name gives are not always drawn. Like-named read-outs stand apart in the source and are kept apart here.
# Assay: MIC of test compounds against various organisms
# Assay type: cell-based
# Protocol: The MIC (jig/ml) of test compounds against various organisms was determined:
# S. aureus Oxford, S. aureus WCUH29, S. pneumoniae 1629, S. pneumoniae N1387, S. pneumoniae ERY 2, E. faecalis I, E. faecalis 7, H. influenzae Ql, H. influenzae NEMC1, M. catarrhalis 1502, E. coli 7623.
# [1] = read-out: MIC versus all these organisms
# [2] = bound holds for all 11 organisms of the panel, read-out: MIC versus all these organisms
# [3] = bound holds only for some of the 11 organisms of the panel, read-out: MIC versus some of these organisms
MIC [2] [µg/mL],SMILES,MIC [1] [µg/mL],also measured
≤ 4,"COc1ccc2nccc(NC(=O)[C@@]3(O)CCN(CCc4ccc5c(c4)NC(=O)CS5)C[C@@H]3O)c2n1 (racemic) [Example 18, (3S/R,4R/S)-3,4-Dihydroxy-1-[2-(3-oxo-3,4-dihydro-2H-benzo[1,4]thiazin-6-yl)-ethyl]-piperidine-4-carboxylic acid (6-methoxy-[1,5]naphthyridin-4-yl)amide dihydrochloride]",,
≤ 4,"COc1ccc2nccc(NC(=O)C3(O)CCN(C[C@H](O)c4ccc5c(n4)NC(=O)CS5)CC3)c2n1 (racemic) [Example 22, 4-Hydroxy-1-[2-(RS)-2-hydroxy-2-(3-oxo-3,4-dihydro-2H-pyrido[3,2-b][1,4]thiazin-6-yl)-ethyl]-piperidine-4-carboxylic acid (6-methoxy-[1,5]naphthyridin-4-yl)amide dihydrochloride]",,
≤ 4,"COc1ccc2nccc(NC(=O)C3(OC)CCN(C[C@H](O)c4ccc5c(n4)NC(=O)CS5)CC3)c2n1 (racemic) [Example 23, 4-Methoxy-1-[2-(RS)-2-hydroxy-2-(3-oxo-3,4-dihydro-2H-pyrido[3,2-b][1,4]-thiazin-6-yl)-ethyl]-piperidine-4-carboxylic acid (6-methoxy-[1,5]naphthyridinyl)amide dihydrochloride]",,
≤ 4,"COc1ccc2nccc(CCC3(O)CCN(C[C@H](O)c4ccc5c(c4)NC(=O)CS5)CC3)c2n1 (racemic) [Example 27, 6-((R,S)-1-Hydroxy-2-(4-hydroxy-4-[2-(6-methoxy-[1,5]naphthyridin-4-yl)ethyl]piperidin-1yl}ethyl)-4H-benzo[1,4]thiazin-3-one]",,
≤ 4,"COc1ccc2nccc(NC(=O)C3(O)CCN(CC(O)c4ccc5c(c4)NC(=O)CS5)CC3)c2n1 (centres unmarked) [Example 9, 4-Hydroxy-1-[2-R,S-hydroxy-2-(3-oxo-3,4-dihydro-2H-benzo[1,4]thiazin-6-yl)-ethyl]-piperidine-4-carboxylic acid (6-methoxy-[1,5]naphthyridin-4-yl)amide oxalate]",,
≤ 16,"COc1ccc2nccc(NC(=O)C3(N)CCN(CC(O)c4cc5c(cc4F)SCC(=O)N5)CC3)c2n1 (centres unmarked) [Example 11, 4-Amino-1-[2-(7-fluoro-3-oxo-3,4-dihydro-2H-benzo[1,4]thiazin-6-yl)-2-R,S-hydroxy-ethyl]-piperidine-4-carboxylic acid (6-methoxy-[1,5]naphthyridin-4-yl)-amide dioxalate]",,
≤ 4,"COc1ccc2nccc(NC(=O)C3(N)CCN(CC(O)c4ccc5c(c4)NC(=O)CS5)CC3)c2n1 (centres unmarked) [Example 12, 4-Amino-1-[2-R,S-hydroxy-2-(3-oxo-3,4-dihydro-2H-benzo[1,4]thiazin-6-yl)-ethyl]-piperidine-4-carboxylic acid (6-methoxy-[1,5]naphthyridinyl)-amide dihydrochloride]",,
≤ 4,"COc1ccc2nccc(NC(=O)C3(OC)CCN(CC(O)c4ccc5c(c4)NC(=O)CS5)CC3)c2n1 (centres unmarked) [Example 16, 1-[2-R,S-Hydroxy-2-(3-oxo-3,4-dihydro-2H-benzo[1,4]thiazin-6-yl)-ethyl]-4-methoxy-piperidine-4-carboxylic acid (6-methoxy-[1,5]naphthyridin-4-yl)-amide dihydrochloride]",,
≤ 16,"COc1ccc2nccc(NC(=O)C3(OC)CCN(C[C@@H](O)c4ccc5c(c4)OCCO5)CC3)c2n1 [Example 17, 1-[2-(2,3-Dihydro-benzo[1,4]dioxin-6-yl)-2-R,S-hydroxy-ethyl]-4-methoxy-piperidine-4-carboxylic acid (6-methoxy-[1,5]naphthyridin-4-yl)-amide dihydrochloride]",,
≤ 16,"COc1ccc2nccc(NC(=O)C3(C(N)=O)CCN(C[C@@H](O)c4ccc5c(c4)OCCO5)CC3)c2n1 [Example 21, 1-[2-(2,3-Dihydro-benzo[1,4]dioxin-6-yl)-2-R,S-hydroxy-ethyl]-piperidine-4,4-dicarboxylic acid amide (6-methoxy-[1,5]naphthyridin-4-yl)-amide dihydrochloride]",,
≤ 4,"COc1ccc2nccc(CCC3(O)CCN(CCc4ccc5c(c4)NC(=O)CS5)CC3)c2n1 [Example 28, 6-(2-{4-hydroxy-4-[2-(6-methoxy-[1,5]naphthyridin-4-yl)ethyl]piperidin-1yl}ethyl)-4H-benzo[1,4]thiazin-3-one]",,

# More lines, now with the values behind:
SMILES,MIC [2] [µg/mL],MIC [1] [µg/mL],also measured
"COc1ccc2nccc(NC(=O)C3(O)CCN(CC(O)c4ccc5c(c4)OCCO5)CC3)c2n1 (racemic) [Example 13, 1-[2-(2,3-Dihydro-benzo[1,4]dioxin-6-yl)-2-(R,S)-hydroxy-ethyl]-4-hydroxy-piperidine-4-carboxylic acid (6-methoxy-[1,5]naphthyridin-4-yl)-amide dihydrochloride]",,≤ 16,
"COc1ccc2nccc(NC(=O)C3(C)CCN(CCc4ccc5c(c4)NC(=O)CS5)CC3)c2n1 [Example 1, 4-Methyl-1-[2-(3-oxo-3,4-dihydro-2H-benzo[1,4]thiazin-6-yl)-ethyl]-piperidine-4-carboxylic acid (6-methoxy-[1,5]naphthyridin-4-yl)amide oxalate]",,≤ 4,
"COc1ccc2nccc(NC(=O)C3(N)CCN(CCc4ccc5c(c4)NC(=O)CS5)CC3)c2n1 [Example 2, 4-Amino-1-[2-(3-oxo-3,4-dihydro-2H-benzo[1,4]thiazin-6-yl)-ethyl]-piperidine-4-carboxylic acid (6-methoxy-[1,5]naphthyridin-4-yl)amide dioxalate]",,≤ 4,
"COc1ccc2nccc(NC(=O)C3(O)CCN(CCc4ccc5c(c4)OCO5)CC3)c2n1 [Example 3, 1-(2-Benzo[1,3]dioxol-5-yl-ethyl)-4-hydroxy-piperidine-4-carboxylic acid (6-methoxy-[1,5]naphthyridin-4yl)amide oxalate]",,≤ 16,
"COc1ccc2nccc(NC(=O)C3(C)CCN(CCc4ccc5c(c4)OCO5)CC3)c2n1 [Example 4, 1-(2-Benzo[1,3]dioxol-5-yl-ethyl)4-methylpiperidine-4-carboxylic acid (6-methoxy-[1,5]naphthyridin-4-yl)-amide oxalate]",,≤ 16,
"COc1ccc2nccc(NC(=O)C3(O)CCN(CCc4ccc5c(c4)NC(=O)CS5)CC3)c2n1 [Example 5, 4-Hydroxy-1-[2-(3-oxo-3,4-dihydro-2H-benzo[1,4]thiazin-6-yl)-ethyl]-piperidine-4-carboxylic acid (6-methoxy-[1,5]naphthyridin-4-yl)-amide oxalate]",,≤ 64,
"COc1ccc2nccc(NC(=O)C3(C(=O)O)CCN(CCc4ccc5c(c4)NC(=O)CS5)CC3)c2n1 [Example 6, 4-(6-Methoxy-[1,5]naphthyridin-4-ylcarbamoyl)-1-[2-(3-oxo-3,4-dihydro-2H-benzo[1,4]thiazin-6-yl)-ethyl]-piperidine-4-carboxylic acid]",,,MIC [3]: ≤ 64 µg/mL
"COc1ccc2nccc(N3CCC4(CCN(C[C@H](O)c5ccc6c(c5)NC(=O)CO6)CC4)C3=O)c2n1 [Example 7, 6-{1-R,S-Hydroxy-2-[2-(6-methoxy-[1,5]naphthyridin-4-yl)-1-oxo-2,8-diaza-spiro[4.5]dec-8-yl]-ethyl)4H-benzo[1,4]oxazin-3-one oxalate]",≤ 16,,
"COc1ccc2nccc(NC(=O)C3(O)CCN(CC(=O)c4ccc5c(c4)NC(=O)CS5)CC3)c2n1 [Example 8, 4-Hydroxy-1-[2-oxo-2-(3-oxo-3,4-dihydro-2H-benzo[1,4]thiazin-6-yl)-ethyl]-piperidine-4-carboxylic acid (6-methoxy-[1,5]naphthyridin-4-yl)-amide oxalate]",,≤ 64,
"COc1ccc2nccc(NC(=O)C3(CO)CCN(CCc4ccc5c(c4)NC(=O)CS5)CC3)c2n1 [Example 10, 4-Hydroxymethyl-1-[2-(3-oxo-3,4-dihydro-2H-benzo[1,4]thiazin-6-yl)-ethyl]-piperidine-4-carboxylic acid (6-methoxy-[1,5]naphthyridin-4-yl)-amide oxalate]",,≤ 4,
"COc1ccc2nccc(NC(=O)C3(O)CCN(CCc4cc5c(nn4)SCC(=O)N5)CC3)c2n1 [Example 14, 4-Hydroxy-1-[2-(6-oxo-6,7-dihydro-5H-pyridazino[3,4-b][1,4]thiazin-3-yl)-ethyl]-piperidine-4-carboxylic acid (6-methoxy-[1,5]naphthyridin-4-yl)-amide dihydrochloride]",,≤ 4,
"COc1ccc2nccc(NC(=O)[C@@]3(O)CCN(CCc4ccc5c(c4)NC(=O)CS5)C[C@@H]3OC)c2n1 [Example 19, 4-R/S-Hydroxy-3-S/R-methoxy-1-[2-(3-oxo-3,4-dihydro-2H-benzo[1,4]thiazin-6-yl)-ethyl]-piperidine-4-carboxylic acid (6-methoxy-[1,5]naphthyridinyl)-amide dihydrochloride]",,,MIC [3]: ≤ 64 µg/mL
"COc1ccc2nccc(NC(=O)C3(C#N)CCN(CCc4ccc5c(c4)NC(=O)CS5)CC3)c2n1.Cl.Cl [Example 20, 4-Cyano-1-[2-(3-oxo-3,4-dihydro-2H-benzo[1,4]thiazin-6-yl)-ethyl]-piperidine-4-carboxylic acid (6-methoxy-[1,5]naphthyridin-4-yl)-amide dihydrochloride]",,≤ 64,
"COc1ccc2nccc(NC(=O)C3(O)CCN(CCc4cc5c(cn4)OCCO5)CC3)c2n1 [Example 25, 1-[2-(2,3-Dihydro-[1,4]dioxino[2,3-c]pyridin-7-yl)-ethyl]4-hydroxy-piperidine-4-carboxylic acid(6-methoxy-[1,5]naphthyridin-4-yl)-amide hydrochloride]",≤ 4,,
"COc1cc(F)c2nccc(NC(=O)C3(O)CCN(CCc4cc5c(cn4)OCCO5)CC3)c2c1 [Example 26, 1-[2-(2,3-Dihydro-[1,4]dioxino[2,3-c]pyridin-7-yl)-ethyl]-4-hydroxy-piperidine-4-carboxylic acid(8-fluoro-6-methoxy-quinolin-4-yl)-amide hydrochloride]",≤ 4,,
